In patent US9261498B2, “Biomarker for sensitivity to mTOR inhibitor therapy in kidney cancer” (The Regents of the University of California, priority 2005, dated 2016):
Entries after “also recorded” stand apart in the source; their conditions may differ.

Test system: HIF-1α
Experiment: Immunoblot of HIF-1α protein in VHL knockdown RCC cells
Format: cell-based, human
Conditions: 1 and 10 nM CCI-779, 24 hours
Experimental: (a) SN12C-CSCG and SN12C-VHLshRNA cell were treated with vehicle, 1 nM or 10 nM of CCI-779 and lysed 24 hours later. Lysates were subjected to immunoblotting for HIF-1α, HIF-2α, GLUT-1, CA-IX, p-eIF4G, p-S6 Ribosomal protein. Equal protein loading was verified using anti-β-actin antibody. (b) HIF-1α expression was probed by immunoblotting in SN12C-MSCV-5′TOP-HIF-1α cDNA (left panel) and SN12C-MSCV-HIF-1α cDNA (tight panel) post 24 hours of vehicle, 1 nM or 10 nM of CCI-779.
Cells and xenograft tumors were lysed in ECB lysis buffer (see, e.g. Kondo et al., Cancer Cell 1, 237-46 (2002)) or high-detergent buffer (2% SDS), (see, e.g. Chen et al., Nat Med 10, 33-9 (2004)), respectively, supplemented with complete protease and phosphatase inhibitor cocktails (Calbiochem). […] Bound antibody was detected using enhanced chemiluminescence (ECL, Amersham). For VEGF ELISA quantification, cells were plated in 6 well plates (1×10^5 per well). […] Thirty-six hours later, VEGF ELISA (R&D Systems) was performed according to the manufacturer's instructions, using a Fisher Plate reader. […]
Cells and xenograft tumors were lysed in ECB lysis buffer or high-detergent buffer (2% SDS), respectively, supplemented with complete protease and phosphatase inhibitor cocktails (Calbiochem). […] Bound antibody was detected using enhanced chemiluminescence (ECL, Amersham). […]

CO[C@H]1C[C@@H]2CC[C@@H](C)[C@@](O)(O2)C(=O)C(=O)N2CCCC[C@H]2C(=O)O[C@H]([C@H](C)C[C@@H]2CC[C@@H](OC(=O)C(C)(CO)CO)[C@H](OC)C2)CC(=O)[C@H](C)/C=C(\C)[C@@H](O)[C@@H](OC)C(=O)[C@H](C)C[C@H](C)/C=C/C=C/C=C/1C [CCI-779]
HIF-1α protein levels: dramatically reduced; also recorded: reduction; also recorded: decrease
